Experimental data reported in US20030234382A1, “Sterilizing composition and method for sterilizing using the same” (NIPPON PEROXIDE CO., LTD., priority 2002, published 2003).

Tested on: chaetomium spore
Test: Sterilizing power test (D value) against chaetomium spores
Assay type: cell-based
Settings: 40° C.; chaetomium spore solution 4×10^6 CFU/ml; peracetic acid and agent concentrations per experiment (c1-c3)
Description: 95 g of tap water was added to 5 g of an equilibrated peracetic acid solution containing 4 wt % of peracetic acid, 16 wt % of hydrogen peroxide and 15 wt % of acetic acid, and the resultant mixture was stirred to prepare a uniform aqueous solution. A peracetic acid concentration of the aqueous solution thus prepared was 2,000 ppm.
Each of sterilizing power test sample solutions was prepared by adding a predetermined amount of each of peracetic acid sterilizing power-improving agents shown in the following Table 1 to the peracetic acid aqueous solution prepared in the above paragraph (a) and stirring the mixture.
100 ml of the above prepared test sample solution was placed in an Erlenmeyer flask, and was maintained at 40° C. 1 ml of a chaetomium spore solution having an inoculated bacteria number of 4×10^6 CFU/ml was inoculated therein, and 1 ml of a sample was taken from the Erlenmeyer flask respectively at 10 seconds, 20 seconds, 30 seconds, 60 seconds and 120 seconds after the inoculation. […] Thereafter, a number of live bacteria remaining in each sample optionally diluted was measured in accordance with plate mix-diluting cuture method using a potato dextrose agar medium, and a D value (time (unit: minute) taken to reduce a bacteria number to 1/10) was determined as a standard of sterilizing power. […]

OCCc1ccccc1 [compound 8]
D40 (D value: time taken to reduce a bacteria number to 1/10): 238 min
